Among the data in patent US6620828B2, “Thiazole compounds and pharmaceutical compositions for inhibiting protein kinases and methods for their use” (Agouron Pharmaceuticals, Inc., priority 1999, dated 2003) are inhibition, FLVK % inhibition and Ki values, retold here.

Where a name gives a salt, the structure may show the parent alone.

T1 sequence (P35968 with tags, fused parts or gaps DEL940-989/E990V limits assumed): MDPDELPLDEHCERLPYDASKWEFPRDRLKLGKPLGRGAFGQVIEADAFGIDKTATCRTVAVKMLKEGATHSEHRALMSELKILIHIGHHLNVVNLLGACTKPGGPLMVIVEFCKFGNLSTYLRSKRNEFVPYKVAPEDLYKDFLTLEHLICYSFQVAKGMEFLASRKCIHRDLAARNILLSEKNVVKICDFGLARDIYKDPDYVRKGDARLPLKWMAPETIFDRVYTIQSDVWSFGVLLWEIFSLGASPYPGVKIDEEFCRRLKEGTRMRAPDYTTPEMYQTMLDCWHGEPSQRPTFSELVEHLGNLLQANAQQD

The first assay has as its target T1, unphosphorylated VEGF-R2Δ50 (FLVK) (Homo sapiens, UniProt P35968, DEL940-989/E990V).
T1 construct: VEGF-R2Δ50 contains residues 806-939 and 990-1171; made in house; host or cells: baculovirus/insect cells
The experiment in a line: VEGF-R2 coupled spectrophotometric assay, unphosphorylated enzyme (FLVK). It counts as biochemical. Particulars: Table 3; at 50 nM. The source says:
VEGF-R2 Construct for Assay: This construct determines the ability of a test compound to inhibit tyrosine kinase activity. A construct (VEGF-R2Δ50) of the cytosolic domain of human vascular endothelial growth factor receptor 2 (VEGF-R2) lacking the 50 central residues of the 68 residues of the kinase insert domain was expressed in a baculovirus/insect cell system. Of the 1356 residues of full-length VEGF-R2, VEGF-R2Δ50 contains residues 806-939 and 990-1171, and also one point mutation (E990V) within the kinase insert domain relative to wild-type VEGF-R2. Autophosphorylation of the purified construct was performed by incubation of the enzyme at a concentration of 4 μM in the presence of 3 mM ATP and 40 mM MgCl2 in 100 mM Hepes, pH 7.5, containing 5% glycerol and 5 mM DTT, at 4° C. for 2 h. […] See Parast et al., Biochemistry, 37, 16788-16801 (1998).
The production of ADP from ATP that accompanies phosphoryl transfer was coupled to oxidation of NADH using phosphoenolpyruvate (PEP) and a system having pyruvate kinase (PK) and lactic dehydrogenase (LDH). The oxidation of NADH was monitored by following the decrease of absorbance at 340 nm (e340=6.22 cm^−1 mM^−1) using a Beckman DU 650 spectrophotometer. Assay conditions for phosphorylated VEGF-R2Δ50 (indicated as FLVK-P in the tables below) were the following: 1 mM PEP; 250 μM NADH; 50 units of LDH/mL; 20 units of PK/mL; 5 mM DTT; 5.1 mM poly(E4Y1); 1 mM ATP; and 25 mM MgCl2 in 200 mM Hepes, pH 7.5. Assay conditions for unphosphorylated VEGF-R2Δ50 (indicated as FLVK in the tables) were the following: 1 mM PEP; 250 μM NADH; 50 units of LDH/mL; 20 units of PK/mL; 5 mM DTT; 20 mM poly(E4Y1); 3 mM ATP; and 60 mM MgCl2 and 2 mM MnCl2 in 200 mM Hepes, pH 7.5. Assays were initiated with 5 to 40 nM of enzyme. Ki values were determined by measuring enzyme activity in the presence of varying concentrations of test compounds. The data were analyzed using Enzyme Kinetic and Kaleidagraph software.
`COc1cccc(C(=O)Nc2ccc(C)c(-c3noc(-c4sc(Nc5ccc(N(C)C)cc5)nc4N)n3)c2)c1` [B(7), 3-[3-[(3-methoxybenzoyl)amino]-6-methyl-phenyl]-5-[2-[4-(N,N-dimethylaminophenyl)amino]-4-amino-5-thiazolyl]-1,2,4-oxadiazole]: 0.05 µM produced 61% inhibition.

`COc1cccc(C(=O)Nc2cc(-c3noc(-c4sc(NC(C)C)nc4N)n3)c(F)cc2F)c1` [B(19), N-{5-[5-(4-Amino-2-isopropylamino-thiazol-5-yl)-[1,2,4]oxadiazol-3-yl]-2,4-difluoro-phenyl}-3-methoxy-benzamide] returned an inhibition at 0.05 µM of 36%.

`COc1cc(F)c(-c2noc(-c3sc(Nc4cc(OC)c(OC)c(OC)c4)nc3N)n2)cc1NC(=O)OC(C)(C)C` [B(41)] returned an inhibition at 0.05 µM of 0%.

Consider `COC(=O)c1cccc(-c2noc(-c3sc(Nc4cc(OC)c(OC)c(OC)c4)nc3N)n2)c1` [B(42)], for which testing at 0.05 µM gave an inhibition of 12%.

As to `COc1cc(Nc2nc(N)c(-c3nc(-c4cccc(C(=O)O)c4)no3)s2)cc(OC)c1OC` [B(43)], testing at 0.05 µM gave an inhibition of 11%.

Molecule `COc1cc(Nc2nc(N)c(-c3nc(-c4cc(N)ccc4F)no3)s2)cc(OC)c1OC` [C(4), 3-[3-amino-6-fluorophenyl]-5-[2-[(3,4,5-trimethoxyphenyl)amino]-4-amino-5-thiazolyl]-1,2,4-oxadiazole] registered an inhibition at 0.05 µM of 3%.

With `COc1cc(F)c(-c2noc(-c3sc(Nc4cc(OC)c(OC)c(OC)c4)nc3N)n2)cc1N` [C(5), 3-[2-fluoro-4-methoxy-5-aminophenyl]-5-[2-[(3,4,5-trimethoxyphenyl)amino]-4-amino-5-thiazolyl]-1,2,4-oxadiazole], 0.05 µM produced 15% inhibition.

`Cc1cccc(C(=O)Nc2cccc(-c3noc(-c4sc(NS(C)(=O)=O)nc4N)n3)c2)c1` [F(15), N-{3-[5-(4-Amino-2-methanesulfonylamino-thiazol-5-yl)-[1,2,4]oxadiazol-3-yl]-phenyl}-3-methyl-benzamide] had an inhibition at 0.05 µM of 5%.

`COc1cccc(C(=O)Nc2cc(-c3csc(-c4sc(NC(=O)NCc5ccccn5)nc4N)n3)c(F)cc2F)c1` [O(16), N-{5-[4′-Amino-2′-(3-pyridin-2-ylmethyl-ureido)-[2,5′]bithiazolyl-4-yl]-2,4-difluoro-phenyl}-3-methoxy-benzamide]: the inhibition at 0.05 µM is 11%.

`COc1cccc(C(=O)Nc2cc(-c3csc(-c4sc(NC(=O)NC[C@@H]5CCCO5)nc4N)n3)c(F)cc2F)c1` [O(23), N-[5-(4′-Amino-2′-{3-[(S)-1-(tetrahydro-furan-2-yl)methyl]-ureido}-[2,5′]bithiazolyl-4-yl)-2,4-difluoro-phenyl]-3-methoxy-benzamide] yielded an inhibition at 0.05 µM of 29%.

Staying with this assay, now noted: Table 3; concentration not given.
`COc1cccc(C(=O)Nc2cc(-c3noc(-c4sc(Nc5cccnc5)nc4N)n3)c(F)cc2F)c1` [B(20), N-(5-{5-[4-Amino-2-(pyridin-3-ylamino)-thiazol-5-yl]-[1,2,4]oxadiazol-3-yl}-2,4-difluoro-phenyl)-3-methoxy-benzamide-TFA salt] returned an FLVK % inhibition of 80%.

The same assay, now with this note: Table 3; some entries 'Slow binder'.
With `COc1cc(Nc2nc(N)c(-c3nc(-c4cc(NC(=O)OC(C)(C)C)ccc4F)no3)s2)cc(OC)c1OC` [B(5), 3-(3-(tert-butyloxycarboxyamino)-6-fluoro-phenyl)-5-[2-[(3,4,5-trimethoxyphenyl)amino]-4-amino-5-thiazolyl]-1,2,4-oxadiazole], the Ki stood at 2.3 nM.

`CCn1nc(C)cc1C(=O)Nc1ccc(C)c(-c2noc(-c3sc(Nc4cccc(CO)c4)nc3N)n2)c1` [B(8)] returned a Ki of 0.1 nM. This Ki is about 23-fold lower than that of the molecule before.

As for `CCn1nc(C)cc1C(=O)Nc1ccc(C)c(-c2noc(-c3sc(Nc4ccc(CN5CCCC5)cc4)nc3N)n2)c1` [B(10)], the Ki is 0.13 nM. This Ki and that of the molecule before are within 1.5-fold of each other.

Consider `Cc1ccc(NC(=O)OC(C)(C)C)cc1-c1noc(-c2sc(Nc3ccccc3)nc2N)n1` [B(23)], for which the Ki worked out at 1.7 nM. Compared with the last molecule, the Ki is about 13-fold higher.

Turning to `Cc1ccc(NC(=O)OC(C)(C)C)cc1-c1noc(-c2sc(Nc3ccc4nc[nH]c4c3)nc2N)n1` [B(24)], the Ki came out at 2.1 nM.

The molecule `COc1ccc(NC(=O)OC(C)(C)C)cc1-c1noc(-c2sc(Nc3cc(OC)c(OC)c(OC)c3)nc2N)n1` [B(25)] registered a Ki of 29 nM.

`CCn1nc(C)cc1C(=O)Nc1ccc(C)c(-c2noc(-c3sc(Nc4ccccc4)nc3N)n2)c1` [B(26)]: affinity was put at a Ki of 2.8 nM.

In turn, `CCn1nc(C)cc1C(=O)Nc1ccc(C)c(-c2noc(-c3sc(Nc4ccc(N5CCN(C)CC5)nc4)nc3N)n2)c1` [B(27)] had a Ki of 0.3 nM.

The molecule `COc1cccc(C(=O)Nc2cc(-c3noc(-c4sc(Nc5ccc(N6CCN(C)CC6)nc5)nc4N)n3)c(C)cc2Cl)c1` [B(28)] registered a Ki of 3 nM.

`Cc1ccc(NC(=O)C(O)CC(C)C)cc1-c1noc(-c2sc(Nc3ccc(N4CCN(C)CC4)nc3)nc2N)n1` (stereo not drawn) [B(29)] returned a Ki of 0.9 nM. Compared with the last molecule, the Ki is about 3.3-fold lower.

`C/C=C(/C)C(=O)Nc1ccc(C)c(-c2noc(-c3sc(Nc4ccc(N5CCN(C)CC5)nc4)nc3N)n2)c1` [B(31)] registered a Ki of 5.1 nM.

Consider `COc1cc(Nc2nc(N)c(-c3nc(-c4cccc(NC(=O)c5cccc(C(N)=O)c5)c4)no3)s2)cc(OC)c1OC` [D(71)], for which the Ki worked out at 4.1 nM.

The molecule `COc1cc(Nc2nc(N)c(-c3nc(-c4cccc(NC(=O)c5ccc(CN6CCN(C)CC6)cc5)c4)no3)s2)cc(OC)c1OC` [D(77)] returned a Ki of 2.6 nM.

For `COc1cccc(C(=O)Nc2cc(-c3noc(-c4sc(NC(=O)NCCN5CCOCC5)nc4N)n3)c(F)cc2F)c1` [O(1), N-[5-(5-{4-Amino-2-[3-(2-morpholin-4-yl-ethyl)-ureido]-thiazol-5-yl}-[1,2,4]oxadiazol-3-yl)-2,4-difluoro-phenyl]-3-methoxy-benzamide], the Ki was 0.28 nM.

`COc1cccc(C(=O)Nc2cc(-c3noc(-c4sc(NC(=O)NCC(N)=O)nc4N)n3)c(F)cc2F)c1` [O(3), N-(5-{5-[4-Amino-2-(3-carbamoylmethyl-ureido)-thiazol-5-yl]-[1,2,4]oxadiazol-3-yl}-2,4-difluoro-phenyl)-3-methoxy-benzamide] had a Ki of 0.57 nM.

Take `COc1cccc(C(=O)Nc2cc(-c3noc(-c4sc(NC(=O)NCC5CCCO5)nc4N)n3)c(F)cc2F)c1` (stereo not drawn) [O(5), N-[5-(5-{4-Amino-2-[3-(tetrahydro-furan-2-ylmethyl)-ureido]-thiazol-5-yl}-[1,2,4]oxadiazol-3-yl)-2,4-difluoro-phenyl]-3-methoxy-benzamide]: the Ki is 0.22 nM.

Consider `COc1cccc(C(=O)Nc2cc(-c3noc(-c4sc(NC(=O)NCCOCCO)nc4N)n3)c(F)cc2F)c1` [O(6), N-{5-[5-(4-Amino-2-{3-[2-(2-hydroxy-ethoxy)-ethyl]-ureido}-thiazol-5-yl)-[1,2,4]oxadiazol-3-yl]-2,4-difluoro-phenyl}-3-methoxy-benzamide], for which the affinity, expressed as Ki, was 0.15 nM.

`COc1cccc(C(=O)Nc2cc(-c3noc(-c4sc(NC(=O)NCc5ccccn5)nc4N)n3)c(F)cc2F)c1` [O(8), N-(5-{5-[4-Amino-2-(3-pyridin-2-ylmethyl-ureido)-thiazol-5-yl]-[1,2,4]oxadiazol-3-yl}-2,4-difluoro-phenyl)-3-methoxy-benzamide]: the Ki worked out at 0.21 nM.

For `CC[C@@H](CO)NC(=O)Nc1nc(N)c(-c2nc(-c3cc(NC(=O)c4cccc(OC)c4)c(F)cc3F)cs2)s1` [O(22), N-(5-{4′-Amino-2′-[3-((S)-1-hydroxymethyl-propyl)-ureido]-[2,5′]bithiazolyl-4-yl}-2,4-difluoro-phenyl)-3-methoxy-benzamide], the affinity, expressed as Ki, was 1.5 nM.

The term inhibition denotes the share of the control response that was lost under treatment. Low readings indicate little suppression, high ones strong suppression. One may read the Ki as a dissociation constant, usually derived from enzyme kinetics or from competition with a known ligand. Low values mean higher affinity, high ones lower affinity.
